“And” between values parts separate entries of the source, which are not always exact repeats. Equal values may be shown once. A value given as a limit tells only on which side of the number the result lay.

Results on six compounds are retold here after PubChem BioAssay AID2060337 (Molecular Pharmacology Branch, DTP, NCI, 2025).

The subject of the assay is 832693-133-R-J1-PDC multi-cell spheroids, viability. As to the kind of experiment: Anticancer human tumor 832693-133-R-J1-PDC patient-derived head and neck squamous carcinoma cell line growth inhibition [IpAb]. Conditions: for viability, T/C: stronger effect = lower value. In a few lines:
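Combinations with ipatasertib or abemaciclib were tested on tumour spheroids holding HUVEC (25%) and MSC (15%) alongside 60% malignant cells. Top concentration was at or near clinical Cmax (10 microM if undefined), descending in half-log steps.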

The mark [1] stands for this setting: curve of first compound, second compound 0.01 µM.
Setting [2] is: curve of first compound, second compound 0.0316 µM.
[3] abbreviates: curve of first compound, second compound 0.1 µM.
Where [4] appears, read: curve of first compound, second compound 0.316 µM.
Setting [5] is: curve of first compound, second compound 1 µM.
Setting [6] is: second compound 0.01 µM, first compound 0.0316 µM.
Setting [7] is: second compound 0.01 µM, first compound 0.1 µM.
Setting [8] is: second compound 0.01 µM, first compound 0.316 µM.
The mark [9] stands for this setting: second compound 0.01 µM, first compound 1 µM.
The mark [10] stands for this setting: second compound 0.01 µM, first compound 3.16 µM.
[11] abbreviates: second compound 0.01 µM, first compound 10 µM.
[12] abbreviates: second compound 0.0316 µM, first compound 0.0316 µM.
Setting [13] is: second compound 0.0316 µM, first compound 0.1 µM.
Where [14] appears, read: second compound 0.0316 µM, first compound 0.316 µM.
[15] abbreviates: second compound 0.0316 µM, first compound 1 µM.
Setting [16] is: second compound 0.0316 µM, first compound 3.16 µM.
The mark [17] stands for this setting: second compound 0.0316 µM, first compound 10 µM.
[18] abbreviates: second compound 0.1 µM, first compound 0.0316 µM.
Setting [19] is: second compound 0.1 µM, first compound 0.1 µM.
Where [20] appears, read: second compound 0.1 µM, first compound 0.316 µM.
Setting [21] is: second compound 0.1 µM, first compound 1 µM.
The mark [22] stands for this setting: second compound 0.1 µM, first compound 3.16 µM.
Where [23] appears, read: second compound 0.1 µM, first compound 10 µM.
The mark [24] stands for this setting: second compound 0.316 µM, first compound 0.0316 µM.
Where [25] appears, read: second compound 0.316 µM, first compound 0.1 µM.
[26] abbreviates: second compound 0.316 µM, first compound 0.316 µM.
The mark [27] stands for this setting: second compound 0.316 µM, first compound 1 µM.
The mark [28] stands for this setting: second compound 0.316 µM, first compound 3.16 µM.
Setting [29] is: second compound 0.316 µM, first compound 10 µM.
Where [30] appears, read: second compound 1 µM, first compound 0.0316 µM.
The mark [31] stands for this setting: second compound 1 µM, first compound 0.1 µM.
[32] abbreviates: second compound 1 µM, first compound 0.316 µM.
The mark [33] stands for this setting: second compound 1 µM, first compound 1 µM.
The mark [34] stands for this setting: second compound 1 µM, first compound 3.16 µM.
Setting [35] is: second compound 1 µM, first compound 10 µM.
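Note: spheroids exposed to the drugs for one week before the viability readout.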
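Throughout, for viability, T/C: 100% = DMSO vehicle control wells.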

For the compound `CC(C)NCC(C(=O)N1CCN(c2ncnc3c2C(C)CC3O)CC1)c1ccc(Cl)cc1` (centres undefined), the viability, T/C (in general, the result in the treated group divided by that in the control group, in per cent) is 89.5% [middle of 13 runs] (compound 0.1 µM); 78.2% [middle of 12 runs] (compound 0.316 µM); 58% [middle of 13 runs] (compound 1 µM); 55.3% [middle of 13 runs] (compound 3.16 µM); 58.4% [middle of 13 runs] (compound 10 µM). Moreover, where the note is “compound alone, run of 05/18/2021”, the IC50 (as a rule, the concentration needed to halve the response being measured) was > 10000 nM and 6660 nM and 1870 nM.
As to `Cc1nc(NC(=O)N2CCCC2C(N)=O)sc1-c1ccnc(C(C)(C)C(F)(F)F)c1` (centres undefined) + CCN1CCN(Cc2ccc(Nc3ncc(F)c(-c4cc(F)c5nc(C)n(C(C)C)c5c4)n3)nc2)CC1, the IC50 amounted to 536 nM under setting [1]; 264 nM under setting [2]; 138 nM under setting [3]; 128 nM under setting [4]; 35.9 nM under setting [5]. In addition, the viability, T/C is 80.1% under setting [6]; 87.8% under setting [7]; 65.7% under setting [8]; 29.2% under setting [9]; 16.2% under setting [10]; 3.69% under setting [11]. Further, the viability, T/C was 75.8% under setting [12]; 69% under setting [13]; 46% under setting [14]; 21.4% under setting [15]; 10.5% under setting [16]; 3.09% under setting [17]. Further, the viability, T/C under setting [18] is 57.4%; the viability, T/C under setting [19] is 53.5%; the viability, T/C under setting [20] was 42.3%; the viability, T/C under setting [21] is 21.4%; the viability, T/C under setting [22] is 11.4%; the viability, T/C under setting [23] is 2.17%. Also, the viability, T/C is 55.4% under setting [24]; 49.4% under setting [25]; 44.9% under setting [26]; 19.4% under setting [27]; 11.5% under setting [28]; 2.65% under setting [29]. Further, the viability, T/C is 49.7% under setting [30]; 48% under setting [31]; 37.6% under setting [32]; 25.1% under setting [33]; 14% under setting [34]; 6.29% under setting [35].
For `CC(=O)c1c(C)c2cnc(Nc3ccc(N4CCNCC4)cn3)nc2n(C2CCCC2)c1=O` + CCN1CCN(Cc2ccc(Nc3ncc(F)c(-c4cc(F)c5nc(C)n(C(C)C)c5c4)n3)nc2)CC1, the IC50 under setting [1] is over 300 nM; the IC50 under setting [2] was over 300 nM; the IC50 under setting [3] is over 300 nM; the IC50 under setting [4] is over 300 nM; the IC50 under setting [5] was over 300 nM. For the same compound, the viability, T/C is 101% (second compound 0.01 µM, first compound 0.000949 µM); 83.8% (second compound 0.01 µM, first compound 0.003 µM); 75.6% (second compound 0.01 µM, first compound 0.00949 µM); 71.8% (second compound 0.01 µM, first compound 0.03 µM); 58.4% (second compound 0.01 µM, first compound 0.0949 µM); 60% (second compound 0.01 µM, first compound 0.3 µM). For the same compound, the viability, T/C is 80.1% (second compound 0.0316 µM, first compound 0.000949 µM); 83.4% (second compound 0.0316 µM, first compound 0.003 µM); 71.1% (second compound 0.0316 µM, first compound 0.00949 µM); 58.4% (second compound 0.0316 µM, first compound 0.03 µM); 56.7% (second compound 0.0316 µM, first compound 0.0949 µM); 54.1% (second compound 0.0316 µM, first compound 0.3 µM). The viability, T/C reads like this: (second compound 0.1 µM, first compound 0.000949 µM) 57.1%; (second compound 0.1 µM, first compound 0.003 µM) 62.2%; (second compound 0.1 µM, first compound 0.00949 µM) 61.4%; (second compound 0.1 µM, first compound 0.03 µM) 52.4%; (second compound 0.1 µM, first compound 0.0949 µM) 54.3%; (second compound 0.1 µM, first compound 0.3 µM) 56%. In addition, the viability, T/C was 54% (second compound 0.316 µM, first compound 0.000949 µM); 53.3% (second compound 0.316 µM, first compound 0.003 µM); 55.3% (second compound 0.316 µM, first compound 0.00949 µM); 61.4% (second compound 0.316 µM, first compound 0.03 µM); 55.2% (second compound 0.316 µM, first compound 0.0949 µM); 60.4% (second compound 0.316 µM, first compound 0.3 µM). For the same compound, the viability, T/C is 67.8% (second compound 1 µM, first compound 0.000949 µM); 61% (second compound 1 µM, first compound 0.003 µM); 68.3% (second compound 1 µM, first compound 0.00949 µM); 64.8% (second compound 1 µM, first compound 0.03 µM); 65.6% (second compound 1 µM, first compound 0.0949 µM); 57.2% (second compound 1 µM, first compound 0.3 µM).
For the compound `C=CC(=O)N1CCN(c2nc(=O)n(-c3c(C)ccnc3C(C)C)c3nc(-c4c(O)cccc4F)c(F)cc23)C(C)C1` (centres undefined) + CCN1CCN(Cc2ccc(Nc3ncc(F)c(-c4cc(F)c5nc(C)n(C(C)C)c5c4)n3)nc2)CC1, the IC50 by setting is: under setting [1], over 10000 nM; under setting [2], over 10000 nM; under setting [3], over 10000 nM; under setting [4], over 10000 nM; under setting [5], over 10000 nM. For the same compound, the viability, T/C reads like this: under setting [6], 96.7%; under setting [7], 104%; under setting [8], 105%; under setting [9], 109%; under setting [10], 117%; under setting [11], 104%. Also, the viability, T/C under setting [12] was 89.5%; the viability, T/C under setting [13] is 89.6%; the viability, T/C under setting [14] was 90.5%; the viability, T/C under setting [15] was 92.2%; the viability, T/C under setting [16] was 115%; the viability, T/C under setting [17] is 95%. In addition, the viability, T/C was 68.8% under setting [18]; 78.8% under setting [19]; 73.3% under setting [20]; 82.9% under setting [21]; 101% under setting [22]; 86.3% under setting [23]. Further, the viability, T/C runs as follows: under setting [24], 58.3%; under setting [25], 59.3%; under setting [26], 64%; under setting [27], 64.9%; under setting [28], 77.5%; under setting [29], 84.2%. Moreover, the viability, T/C runs as follows: under setting [30], 53.8%; under setting [31], 58.9%; under setting [32], 65.5%; under setting [33], 73.7%; under setting [34], 82.4%; under setting [35], 98.4%.
`CC1(C)CCC(CN2CCN(c3ccc(C(=O)NS(=O)(=O)c4ccc(NCC5CCOCC5)c([N+](=O)[O-])c4)c(Oc4cnc5[nH]ccc5c4)c3)CC2)=C(c2ccc(Cl)cc2)C1`: the viability, T/C reads like this: (compound 0.0316 µM) 98.5% and 113%; (compound 0.1 µM) 98.3% and 122%; (compound 0.316 µM) 106% and 107%; (compound 1 µM) 108% and 102%; (compound 3.16 µM) 110% and 90.5%. Moreover, the 50% inhibitory concentration (IC50) (curve of compound) was 8780 nM and 5330 nM.
Turning to `CCCS(=O)(=O)Nc1ccc(F)c(C(=O)c2c[nH]c3ncc(-c4ccc(Cl)cc4)cc23)c1F`, the viability, T/C is, setting by setting: (compound 0.0316 µM) 102% and 106%; (compound 0.1 µM) 107% and 108%; (compound 0.316 µM) 99.7% and 108%; (compound 1 µM) 95.7% and 90.7%; (compound 3.16 µM) 67.7% and 69.2%; (compound 10 µM) 37% and 39.9%. Further, the half-inhibitory concentration (IC50) (curve of compound) was 6160 nM and 6680 nM.
